Compound: CC[C@H](CO)Nc1nc(NCc2ccccc2)c2ncn(C(C)C)c2n1 [Seliciclib] + COc1cc2c(Oc3ccc(NC(=O)C4(C(=O)Nc5ccc(F)cc5)CC4)cc3F)ccnc2cc1OCCCN1CCOCC1 [Foretinib] (partner 0.25 µM)
Test: relative viability (nuclei count vs DMSO), 5 days (fraction); higher = more cells survive
How it was run: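 Dosing by pin tool came one day after lung cancer cell lines were seeded in 1536-well plates, using either one drug or a fixed anchor-drug dose plus five library-drug doses (not always all listed) in √10 steps. After 5 days, nuclei were counted on 4× images. Relative viability is treated-well nuclei count divided by vehicle-well nuclei count, and values are medians of duplicate plates.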

| Cell Line | relative viability (first compound 0.08 µM) | relative viability (first compound 0.253 µM) | relative viability (first compound 0.8 µM) | relative viability (first compound 2.53 µM) | relative viability (first compound 8 µM) |
| --- | --- | --- | --- | --- | --- |
| LCLC-97TM1 | 0.936 | 0.952 | 0.961 | 0.793 | 0.72 |
| HARA | 0.95 | 1.06 | 0.943 | 0.982 | 0.714 |
| HCC-78 | 0.535 | 0.574 | 0.445 | 0.41 | 0.457 |
| NCI-H1666 | 0.97 | 1.04 | 0.987 | 1 | 0.662 |
| NCI-H2347 | 1.18 | 1.23 | 0.938 | – | 0.738 |
| NCI-H2342 | 0.91 | 0.882 | 1.06 | 1.14 | 0.935 |
| NCI-H838 | 0.902 | 0.928 | 0.998 | 1.11 | 0.808 |
| NCI-H2023 | 0.752 | 0.664 | 0.865 | 0.909 | 0.833 |
| 201T | 0.915 | 1.13 | 1.07 | – | 1.04 |
| NCI-H1915 | 1.09 | 1.15 | 1.05 | 1.09 | 0.815 |
| NCI-H2009 | 1.21 | 1.24 | 1.22 | 1.18 | 1.27 |
| BEN | 0.615 | 0.576 | 0.746 | 0.621 | 0.592 |
| PC-14 | 0.884 | 0.971 | 0.902 | 0.997 | 0.843 |
| NCI-H2170 | 0.936 | 0.934 | 1.01 | 1.09 | 0.968 |
| NCI-H727 | 0.905 | 0.917 | 0.716 | 0.661 | 0.896 |
| NCI-H1355 | 0.95 | 0.976 | 0.706 | 1.03 | 0.93 |
| NCI-H1975 | 1 | 0.977 | 0.894 | 0.932 | 0.748 |
| LK-2 | 1.13 | 1.08 | 0.776 | 0.85 | 0.977 |
| NCI-H661 | 1.03 | 0.936 | 0.975 | 0.945 | 0.636 |
| NCI-H358 | 0.684 | 0.597 | 0.752 | 0.665 | 0.457 |
| HCC-366 | 0.917 | 0.97 | 0.786 | 0.93 | 0.762 |
| HOP-62 | 1.17 | 1.18 | 1.1 | 1.17 | 0.993 |
| SW 1573 | 0.879 | 1.01 | 0.946 | 0.65 | 0.739 |
| LU99A | 0.83 | 0.532 | 0.825 | 0.717 | 0.517 |
| NCI-H647 | 1.16 | – | 1.13 | 1.19 | 1.09 |

| Cell Line | relative viability (first compound 0.08 µM) | relative viability (first compound 0.253 µM) | relative viability (first compound 0.8 µM) | relative viability (first compound 2.53 µM) | relative viability (first compound 8 µM) |
| --- | --- | --- | --- | --- | --- |
| A-427 | 1.06 | 1.11 | 0.944 | 1.28 | 1.17 |
| COR-L 105 | 1.11 | 0.8 | 1.02 | 1.18 | 1.02 |
| NCI-H441 | 0.791 | 0.86 | 0.969 | 0.93 | 0.623 |
| NCI-H2126 | 1.11 | 1.21 | 1.07 | 0.968 | 0.943 |
| EBC-1 | 0.124 | 0.103 | 0.105 | 0.125 | 0.108 |
| NCI-H460 | 0.993 | 1.05 | 1 | 1.06 | 0.882 |
| SK-LU-1 | 0.832 | 0.785 | 0.83 | 0.914 | 0.654 |
| SW 900 | 0.802 | 0.995 | 0.784 | 0.765 | 0.891 |
| NCI-H322M | 1 | 1.23 | 0.907 | 0.865 | 0.752 |
| EKVX | – | 0.887 | 0.533 | 0.756 | 0.77 |
| NCI-H1734 | 0.809 | 0.702 | 0.802 | 0.793 | 0.738 |
| SK-MES-1 | 0.891 | 0.889 | 0.771 | 0.903 | 0.862 |
| ABC-1 | 1.04 | 0.987 | 1.17 | 1.02 | 1.2 |
| NCI-H520 | 0.759 | – | 0.826 | 0.76 | 0.858 |
| EPLC-272H | 0.707 | 0.72 | 0.56 | 0.623 | 0.494 |
| UMC-11 | 1.05 | 0.87 | 1.01 | 0.939 | 0.784 |
| NCI-H1993 | 0.742 | 0.722 | 0.723 | 0.694 | 0.756 |
| NCI-H596 | 0.849 | – | 0.843 | 0.68 | 0.65 |
| NCI-H1563 | 0.922 | 0.803 | 0.932 | 0.941 | 0.86 |
| NCI-H1395 | 0.974 | 0.905 | 0.978 | 0.995 | 0.966 |
| NCI-H1299 | 1.11 | 1.2 | 1.08 | 1.07 | 1.09 |
| HCC-827 | 1.01 | 1.04 | 0.968 | 0.972 | 0.925 |
| ChaGo-K-1 | 0.877 | 0.862 | 0.892 | 0.979 | 0.823 |
| NCI-H2228 | 0.931 | 0.826 | 0.727 | 0.856 | 0.591 |
| NCI-H1793 | 0.706 | 0.6 | 0.654 | 0.712 | 0.456 |

| Cell Line | relative viability (first compound 0.08 µM) | relative viability (first compound 0.253 µM) | relative viability (first compound 0.8 µM) | relative viability (first compound 2.53 µM) | relative viability (first compound 8 µM) |
| --- | --- | --- | --- | --- | --- |
| EMC-BAC-2 | 1.02 | 0.94 | 0.955 | 1.02 | 0.909 |
| A549 | 0.919 | 0.985 | 0.895 | 0.966 | 0.775 |
| NCI-H23 | 0.977 | 1.09 | 0.96 | 0.88 | 0.592 |
| RERF-LC-KJ | 0.828 | 0.748 | 0.83 | 0.922 | 0.803 |
| NCI-H1944 | 0.881 | 0.866 | 0.829 | 0.9 | 0.554 |
| LC-2-ad | 0.949 | 0.966 | 0.865 | 0.747 | 0.852 |
| HCC-15 | 1.06 | 1.13 | 0.968 | 0.959 | 0.724 |
| NCI-H2405 | 1.06 | 1.16 | 1.07 | 0.836 | 0.939 |
| LXF-289 | 0.95 | 1.16 | 0.973 | 0.943 | 0.86 |
| CAL-12T | 1.16 | 1.48 | 1.26 | 1.21 | 0.731 |
| COR-L23 | 0.928 | 1.22 | 0.981 | 0.99 | 0.738 |
| NCI-H1755 | 0.94 | 0.891 | 1.02 | 0.882 | 0.915 |
| NCI-H1437 | 1.2 | 1.31 | 1.26 | 1.31 | 1.18 |
| NCI-H2085 | 0.89 | 0.954 | 0.903 | 0.829 | 0.676 |
| IA-LM | 1.18 | 1.48 | 1.04 | 1.1 | 0.925 |
| H3255 | 0.808 | 1.01 | 0.51 | 0.806 | 0.895 |
| NCI-H650 | 1.03 | 1.03 | 0.912 | 0.842 | 0.856 |
| LCLC-103H | 0.812 | 0.878 | 0.708 | 0.739 | 0.589 |
| LOU-NH91 | 0.9 | 0.904 | 0.885 | 0.905 | 0.739 |
| NCI-H1650 | 0.984 | 1.1 | 0.956 | 1.35 | 0.981 |
| NCI-H3122 | 1.03 | – | 0.938 | 0.983 | 0.786 |
| PC-3 [JPC-3] | 1.07 | 1.09 | 0.997 | 0.997 | 0.809 |
| Calu-6 | 0.847 | 0.686 | 0.945 | 0.892 | 0.733 |
| NCI-H1651 | 0.583 | 0.754 | 0.819 | 0.857 | 0.75 |
| NCI-H2087 | 1.16 | 1.05 | 1.04 | 1.07 | 0.816 |

Reference: the supplement of paper PMC10307832
